Paper PMC11931565, “Exploring medium and long arm extensions of 1,2,4-triazole derivatives as Candida albicans 14α-demethylase (CYP51) inhibitors” (RSC Medicinal Chemistry, 2025)
Converted amounts (≈) assume the structure as drawn.

Legend:
[1] = test system: C. albicans laboratory strain SC5314; assay: C. albicans susceptibility testing (CLSI broth microdilution MIC), strain SC5314; format: cell-based, Candida albicans; settings: Candida albicans, SC5314, 48 h, RPMI 1640, 37 °C, read at 48 h
From the text: (§1) Each novel compound was screened against C. albicans wild-type clinical isolate CA14 and C. albicans laboratory strain SC5314 using the standardised CLSI M27-S4 broth dilution method.[28] […] This might be explained by the clog P data as the more lipophilic compounds should more readily penetrate the fungal membrane resulting in improved uptake or may relate to optimal fill of the small hydrophobic pocket leading to improved binding.
(§2) Antifungal MIC values were obtained according to the CLSI microdilution method for yeasts.[28]C. albicans strains CA14 and SC5314 were tested in triplicate. Cultures were diluted to 2.5 × 10^3 cells per mL in RPMI 1640 (Sigma), buffered with 0.165 M MOPS, pH 7.0. Antifungal compounds were dissolved in DMSO and added at a final concentration of 1% v/v DMSO. Plates were incubated at 37 °C and read at 48 h.

[2] = target: T1, native CaCYP51 (Candida albicans, UniProt P10613); assay: CaCYP51 type II ligand binding affinity (Kd) from difference spectra saturation curves; settings: 2.5 μM native CaCYP51; mean ± SD of three titrations; read-out: K d
T1 construct: made in house; host or cells: E. coli
T1 sequence (P10613 whole entry): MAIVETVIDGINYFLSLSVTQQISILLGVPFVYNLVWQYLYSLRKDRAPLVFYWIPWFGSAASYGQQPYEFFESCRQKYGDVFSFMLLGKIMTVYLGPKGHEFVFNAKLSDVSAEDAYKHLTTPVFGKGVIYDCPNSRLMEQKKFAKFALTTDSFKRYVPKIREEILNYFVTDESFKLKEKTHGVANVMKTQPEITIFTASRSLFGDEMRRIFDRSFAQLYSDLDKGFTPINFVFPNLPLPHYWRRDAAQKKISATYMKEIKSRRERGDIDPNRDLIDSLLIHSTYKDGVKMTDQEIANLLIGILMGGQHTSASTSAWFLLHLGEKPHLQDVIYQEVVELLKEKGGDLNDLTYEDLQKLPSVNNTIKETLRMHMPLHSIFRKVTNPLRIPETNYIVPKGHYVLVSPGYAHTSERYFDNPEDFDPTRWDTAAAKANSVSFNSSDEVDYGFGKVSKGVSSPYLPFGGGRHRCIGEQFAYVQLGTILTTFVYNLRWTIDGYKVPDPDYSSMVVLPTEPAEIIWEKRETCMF
Experimental: Azole titration was performed in triplicate.
The ligand–CaCYP51 complex was determined by non-linear regression (Levenberg–Marquardt algorithm) using a rearrangement of the Morrison equation for tight ligand binding,[38] while weak ligand binding was calculated by the Michaelis–Menten equation. Curve fitting for novel azole saturation curves was performed using the computer program ProFit 6.1.12 (QuantumSoft, Zurich, Switzerland) for Mac OSX. Kd values were determined for each of the three replicate titrations per azole compound and then mean Kd values and standard deviations calculated.

[3] = target: T2, C. albicans CYP51 (CaCYP51) (Candida albicans, UniProt P10613); assay: CaCYP51 reconstitution assay (IC50); format: biochemical; settings: 1 μM CaCYP51, 60 μM lanosterol, 15 min at 37 °C
T2 construct: made in house; host or cells: E. coli
T2 sequence (P10613 whole entry): as above
Experimental: Derivatives with a MIC <1 μg mL^−1 were chosen for IC50 testing.
C. albicans CYP51 was overexpressed in E. coli and purified and CaCYP51 reconstitutions assays performed.[10,37] The final reaction volume of 500 μL, contained; 1 μM C. albicans CYP51, 2 μM Homo sapiens cytochrome P450 reductase (CPR) (UniProtKB accession number P16435), 60 μM lanosterol, 50 μM dilaurylphosphatidylcholine, 4% w/v 2-hydroypropyl-cyclodextrin, 0.4 mg mL^−1 isocitrate dehydrogenase, 25 mM trisodium isocitrate, 50 mM NaCl, 5 mM MgCl2, and 40 mM MOPS (morpholinepropanesulfonic acid, pH 7.2). Antifungal compounds were added in 2.5 μL DMSO. The reaction was started by the addition of 4 mM NADPH-tetrasodium salt. Samples were shaken for 15 min at 37 °C and sterol metabolites extracted with ethyl acetate and derivatised with BSTFA.

[4] = test system: C. albicans wild-type clinical isolate CA14; assay: C. albicans susceptibility testing (CLSI broth microdilution MIC), strain CA14; format: cell-based, Candida albicans; settings: Candida albicans, RPMI 1640, 37 °C, read at 48 h
From the text: as §1, §2

[5] = test system: S. cerevisiae Y570 overexpressing C. albicans ABC transporter CDR1B; assay: MIC, recombinant S. cerevisiae strain Y570 CaCDR1B; format: cell-based; settings: SD medium pH 6.8, 30 °C; 80% inhibition of growth
Experimental: (§3) The most promising thiazole derivative 7b, and the extended amide derivatives 13a and 13b were evaluated against a panel of recombinant S. cerevisiae strains[24,31,32] expressing control levels of wild-type CYP51 (ScCYP51), overexpressed wild-type ScCYP51, overexpressed azole-resistant ScCYP51 Y140F/H mutations (S. cerevisiae Y140 equivalent to C. albicans Y132), overexpressed C. albicans efflux pumps MDR1a or CDR1B and overexpressed H. sapiens wild-type CYP51 (HsCYP51) (Table 3) at 24 and 48 h with each assay performed in triplicate.
(§4) Minimum inhibitory concentration (MIC) were determined according to recommendations outlined in the Clinical and Laboratory Standards Institute (CLSI) document M27-Ed4E[39] with modifications. Sabouraud dextrose (SD) medium (pH 6.8) was used instead of RPMI-1640 for inoculum and growth of the S. cerevisiae strains and cultures were incubated at 30 °C. […] Stock solutions of each agent were prepared in DMSO and the final concentration of DMSO was 1% (v/v) in SD. […] The final concentration of all other compounds ranged from 0.03–16 μg mL^−1. Three biological repeats were performed.

[6] = test system: S. cerevisiae Y2411 parent (control levels of wild-type ScCYP51); assay: MIC, recombinant S. cerevisiae strain Y2411 parent; format: cell-based; settings: Saccharomyces cerevisiae; SD medium pH 6.8, 30 °C; 80% inhibition of growth; read-out: MIC Y2411 parent
Experimental: as §3, §4

[7] = test system: S. cerevisiae Y525 overexpressing C. albicans MFS transporter MDR1a; assay: MIC, recombinant S. cerevisiae strain Y525 CaMDR1a; format: cell-based; settings: SD medium pH 6.8, 30 °C; 80% inhibition of growth
Experimental: as §4

[8] = test system: S. cerevisiae Y2760 overexpressed H. sapiens wild-type CYP51 (HsCYP51); assay: MIC, recombinant S. cerevisiae strain Y2760 HsCYP51; format: cell-based; settings: Saccharomyces cerevisiae; SD medium pH 6.8, 30 °C; 80% inhibition of growth; read-out: MIC Y2760 HsCYP51
Experimental: as §3
The HsCYP51 ORF (NP_000777.1) was codon harmonized (ch) using DNA 2.0 for expression in S. cerevisiae and synthesized by ATUM (Newark, Ca, USA). The 3′ end of the ORF was extended to encode EQKI of the ScErg11 C-terminus, followed by a GGR linker and a 6xHis tag. Strain Y2514 was prepared by transforming host strain Y1857 with a transformation cassette including the above construct together with the ScPGK transcription terminator and URA3 selection marker located downstream, bordered by upstream and downstream parts of ScPDR5 gene identical to sequences in ScErg11 over-expressing strain Y941. Strain Y2514 constitutively overexpressed HsCYP51ch-6xHis and URA3 from the ScPDR5 locus.
Strain Y2757 (Y2514, PDR15::HsCPRch-6xHis-LoxP-HIS1-LoxP) was prepared by co-expressing the cognate reductase HsCRP in strain Y2514. Codon harmonisation and synthesis of human NADPH-cytochrome P450 reductase isoform 2 (HsCPRch, NP_001369584.1) ORF was performed by ATUM. The gene was 3′ extended with a sequence encoding GGR-6xHIS. A transformation cassette was prepared by recombinant PCR to include the HsCPRch ORF with 657 nucleotides the ScPDR5 promoter upstream, and the ScPGK terminator followed by the LoxP flanked ScHIS1 selection marker downstream. ScPDR15 specific arms bordering the construct enabled the cassette to be integrated between the nucleotide 441 of the 5′ UTR and nucleotide 1 of the 3′ UTR in PDR15.
Strain Y2758 (Y2757 ΔHIS1) was made using the following steps. Strain Y2757 was transformed with the pSH69 pGAL1-cre plasmid (Euroscarf, Germany) via selection on hygromycin (75 μg mL^−1) containing YPD plates. A single hygromycin positive colony was inoculated in 1% yeast extract, 2% peptone and 2% of galactose broth and incubated for 16 hours at 30 °C with shaking. The diluted culture was then plated on YPD agar and replica-plated on YPD + hygromycin and SD-HIS dropout agar plates. Deletion of the HIS selection marker downstream of HsCPRch-6xHis in the PDR15 locus was confirmed in double His and hygromycin negative isolates by PCR and DNA sequence analysis.
The endogenous ScERG11 ORF in strain Y2758 was removed by transforming with a LoxP- ScHIS1 containing cassette with arms complementing from +387 nucleotides in the 5′UTR and −60 nucleotides in the 3′UTR of the ScERG11 locus, resulting in strain Y2760 (ADΔΔ PDR5::HsCYP51ch-6×HIS-URA3; PDR15::HsCPRch6×HIS-LoxP, ΔERG11-LoxP-HIS1-LoxP).
as §4

[9] = test system: S. cerevisiae Y2513 overexpressed ScCYP51 Y140H; assay: MIC, recombinant S. cerevisiae strain Y2513 Y140H; format: cell-based; settings: Saccharomyces cerevisiae, pH 6.8, read-out: MIC Y2513 Y140H
Experimental: as §3, §4

[10] = test system: S. cerevisiae Y2300 overexpressed wild-type ScCYP51; assay: MIC, recombinant S. cerevisiae strain Y2300 ScCYP51; format: cell-based; settings: Saccharomyces cerevisiae; SD medium pH 6.8, 30 °C; 80% inhibition of growth; read-out: MIC Y2300 ScCYP51
Experimental: as §3, §4

[11] = test system: S. cerevisiae Y2301 overexpressed ScCYP51 Y140F; assay: MIC, recombinant S. cerevisiae strain Y2301 Y140F; format: cell-based; settings: Saccharomyces cerevisiae, pH 6.8, read-out: MIC Y2301 Y140F
Experimental: as §3, §4

| Compound | MIC [1] [µg/mL] | Kd [2] [µM] | IC50 [3] [µM] | MIC [4] [µg/mL] | MIC [5] [µg/mL] | MIC [6] [µg/mL] | MIC [7] [µg/mL] | MIC [8] [µg/mL] | MIC [9] [µg/mL] | MIC [10] [µg/mL] | MIC [11] [µg/mL] |
| --- | --- | --- | --- | --- | --- | --- | --- | --- | --- | --- | --- |
| CC(=O)c1cccc(C(=O)NCC(O)(Cn2cncn2)c2ccc(Cl)cc2)c1 (stereo not drawn) [6a, 3-Acetyl-N-(2-(4-chlorophenyl)-2-hydroxy-3-(1H-1,2,4-triazol-1-yl)propyl)benzamide] | 0.25 (≈ 0.627 µM) | 1.44 ± 0.266 | 1.3 | 0.25 (≈ 0.627 µM) |  |  |  |  |  |  |  |
| O=C(NCC(O)(Cn1cncn1)c1ccc(Cl)cc1)c1ccc(NC(=S)Nc2ccc(Cl)cc2)cc1 (stereo not drawn) [11a, N-(2-(4-Chlorophenyl)-2-hydroxy-3-(1H-1,2,4-triazol-1-yl)propyl)-4-(3-(4-chlorophenyl)thioureido)benzamide] | 4 (≈ 7.39 µM) |  |  | 4 (≈ 7.39 µM) |  |  |  |  |  |  |  |
| O=C(NCC(O)(Cn1cncn1)c1ccc(Cl)cc1)c1csc(Cl)n1 (stereo not drawn) [7a, 2-Chloro-N-(2-(4-chlorophenyl)-2-hydroxy-3-(1H-1,2,4-triazol-1-yl)propyl)thiazole-4-carboxamide] | 0.25 (≈ 0.628 µM) | 0.635 ± 0.181 | 0.77 | 0.25 (≈ 0.628 µM) |  |  |  |  |  |  |  |
| CC[C@@H]([C@H](C)O)n1ncn(-c2ccc(N3CCN(c4ccc(OC[C@@H]5CO[C@@](Cn6cncn6)(c6ccc(F)cc6F)C5)cc4)CC3)cc2)c1=O [PCZ, posaconazole, reference compound] |  |  |  |  | 8 | < 0.03 | < 0.03 | 8 | < 0.03 | 0.06 | 0.06 |
| O=C(NCC(O)(Cn1cncn1)c1ccc(Cl)cc1Cl)c1ccc(NC(=S)Nc2ccc(Cl)cc2)cc1 (stereo not drawn) [11b, 4-(3-(4-Chlorophenyl)thioureido)-N-(2-(2,4-dichlorophenyl)-2-hydroxy-3-(1H-1,2,4-triazol-1-yl)propyl)benzamide] | 0.5 (≈ 0.868 µM) | 0.125 ± 0.041 | 0.67 | 0.25 (≈ 0.434 µM) |  |  |  |  |  |  |  |
